Test results reported in US6355669B1, “Retinoic acid agonists as preventive and therapeutic agents for nephritis” (Eisai Co., Ltd., priority 1997, dated 2002).

How the values were obtained:
human RARγ = biological target: T1, human RARγ (Homo sapiens, UniProt P13631); assay: RAR binding assay (inhibition of 3H-all-trans-retinoic acid binding), RAR-γ; parameters: expressed in transfected cells; conditions: nuclear extract of BHK cells expressing human RARγ, read-out: Receptor binding assay IC50 (nM) RAR-γ
T1 sequence (P13631 1-454): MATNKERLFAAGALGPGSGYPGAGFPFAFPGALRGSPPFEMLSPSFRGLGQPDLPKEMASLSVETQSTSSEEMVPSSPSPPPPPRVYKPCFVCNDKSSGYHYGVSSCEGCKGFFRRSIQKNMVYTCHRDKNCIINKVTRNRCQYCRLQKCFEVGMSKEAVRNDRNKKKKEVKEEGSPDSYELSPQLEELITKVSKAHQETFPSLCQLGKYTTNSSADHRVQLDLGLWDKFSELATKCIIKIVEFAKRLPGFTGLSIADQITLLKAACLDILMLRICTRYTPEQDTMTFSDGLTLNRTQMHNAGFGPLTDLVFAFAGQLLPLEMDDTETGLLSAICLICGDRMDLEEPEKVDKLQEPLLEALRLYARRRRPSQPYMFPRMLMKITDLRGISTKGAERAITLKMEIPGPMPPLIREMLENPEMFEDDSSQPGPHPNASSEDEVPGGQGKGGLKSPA
Protocol: (§1) Cells constantly expressing RARα, β and γ proteins were prepared by introducing human RARα, β and γ genes into BHK (baby hamster kidney) cells. A nuclear fraction of these cells was used to construct an experimental system for measuring the specific binding of all-trans-retinoic acid to RAR, and in this experimental system, the ability of each test compound to bind to […] was examined by measuring the degree of inhibition of binding. Further, the ability of each test compound to bind to each receptor subtype was compared to determine the selectivity of the compound for RAR subtype.
(§2) 5×10^8 BHK cells having the RAR gene introduced into them were suspended in 15 ml solution A (5 mM sodium phosphate (pH 7.4), 10 mM monothioglycerol, 10% (v/v) glycerol, 1 mM phenyl methyl sulfonyl fluoride (PMSF), 10 μg/ml aprotinin, 25 μg/ml leupeptin), then homogenized therein and centrifuged, and the supernatant was removed. The resulting pellet was suspended in 15 ml buffer B (10 mM Tris-HCl (pH 8.5), 10 mM monothioglycerol, 10% (v/v) glycerol, 1 mM PMSF, 10 μg/ml aprotinin, 25 μg/ml leupeptin, 0.4 M potassium chloride), then left at 4° C. for 1 hour and ultracentrifuged at 100,000×g, 4° C. for 1 hour. The resulting supernatant was frozen and stored as a nuclear extract fraction at −80° C. until use (Methods in Enzymology, 189, 248).
(§3) 180 μl of the extract fraction and 10 μl diluted solution of all-trans-retinoic acid or a test compound were added to each well on a 96-well plate made of polypropylene, and further 10 μl of 10 nM ^3H-all-trans-retinoic acid was added thereto and left at 4° C. for 16 hours. 3% charcoal-0.3% dextran solution was added to the reaction solution and centrifuged whereby free ^3H-all-trans-retinoic acid was separated, and the count in the supernatant was determined by a scintillation counter. The count when a 500-fold excess of non-labeled all-trans-retinoic acid was added was subtracted as unspecific binding from the value obtained, to determine the amount of each compound binding specifically to RAR.
(§4) The concentration (IC50) of each compound at which the binding of ^3H-all-trans-retinoic acid was inhibited by 50% was determined and the results are shown in Tables 3-1 and 3-2.

human RARα = biological target: T2, human RARα (Homo sapiens, UniProt P10276); assay: RAR binding assay (inhibition of 3H-all-trans-retinoic acid binding), RAR-α; parameters: expressed in transfected cells; conditions: nuclear extract of BHK cells expressing human RARα, read-out: Receptor binding assay IC50 (nM) RAR-α
T2 sequence (P10276 1-462): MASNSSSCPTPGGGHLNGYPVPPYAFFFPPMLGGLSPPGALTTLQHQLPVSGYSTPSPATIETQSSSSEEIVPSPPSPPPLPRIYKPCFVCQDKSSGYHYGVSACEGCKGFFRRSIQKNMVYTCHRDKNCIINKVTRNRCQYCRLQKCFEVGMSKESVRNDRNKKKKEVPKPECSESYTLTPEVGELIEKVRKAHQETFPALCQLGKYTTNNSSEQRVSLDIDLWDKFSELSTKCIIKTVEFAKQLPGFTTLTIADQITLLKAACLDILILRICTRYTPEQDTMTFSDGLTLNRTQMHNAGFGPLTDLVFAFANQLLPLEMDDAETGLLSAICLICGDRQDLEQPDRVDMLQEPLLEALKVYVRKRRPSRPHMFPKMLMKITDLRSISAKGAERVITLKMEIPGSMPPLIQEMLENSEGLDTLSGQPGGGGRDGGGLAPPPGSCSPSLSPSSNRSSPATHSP
Protocol: as §1, §2, §3, §4

human RARβ = biological target: T3, human RARβ (Homo sapiens, UniProt P10826); assay: RAR binding assay (inhibition of 3H-all-trans-retinoic acid binding), RAR-β; parameters: expressed in transfected cells; conditions: nuclear extract of BHK cells expressing human RARβ, read-out: Receptor binding assay IC50 (nM) RAR-β
T3 sequence (P10826 1-455): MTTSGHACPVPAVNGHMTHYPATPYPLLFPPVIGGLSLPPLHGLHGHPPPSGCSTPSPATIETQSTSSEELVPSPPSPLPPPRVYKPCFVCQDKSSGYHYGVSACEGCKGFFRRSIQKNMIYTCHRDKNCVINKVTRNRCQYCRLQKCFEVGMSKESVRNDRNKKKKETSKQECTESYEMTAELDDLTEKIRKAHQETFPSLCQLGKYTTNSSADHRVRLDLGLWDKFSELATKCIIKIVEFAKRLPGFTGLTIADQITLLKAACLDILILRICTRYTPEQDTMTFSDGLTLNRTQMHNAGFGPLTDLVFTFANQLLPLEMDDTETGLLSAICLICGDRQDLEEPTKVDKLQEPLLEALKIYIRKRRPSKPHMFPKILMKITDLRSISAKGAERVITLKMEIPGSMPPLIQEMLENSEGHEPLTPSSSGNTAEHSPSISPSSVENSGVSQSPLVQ
Protocol: as §1, §2, §3, §4

[1] = test system: anti-dinitrophenyl (DNP) IgG2a antibody titer; assay: Mouse model producing antibody (anti-DNP IgG2a antibody titer in serum, ELISA); format: in vivo, BALB/c mice; conditions: for effect on anti-DNP IgG2a: dose 0.1 mg/kg oral once every day for 10 days, 10th day after immunization
Protocol: BALB/c mice were immunized by administering dinitrophenylated keyhole limpet hemocyanin (DNP-KLH) as antigen intraperitoneally into them in a dose of 100 μg/mouse along with Freund's complete adjuvant. On the 10th day after the day on which the mice were immunized, blood was collected from the orbital venous plexus of the animals under anesthesia with ether and examined for anti-dintrophenyl (DNP) IgG2a antibody titer in serum by the ELISA method.
The test compounds B, E, F, G and H were suspended in 0.5% aqueous methyl cellulose solution and orally administered into the animals once every day for 10 days from the day when the animals were immunized with DNP-KLH. The medium was administered into the control group.

[2] = test system: accelerated Masugi nephritis; assay: Rat model with accelerated Masugi nephritis (proteins excreted in urine for 24 hours); format: in vivo, Sprague-Dawley strain rats; conditions: oral once every day, compared with the control group
Protocol: Sprague-Dawley strain rats were immunized by subcutaneously administering rabbit γ-globulin in a dose of 4 mg/rat along with Freund's complete adjuvant into the bottoms of their both hind legs. On the 5th day after the rats were immunized, 1 ml of anti-rat glomerular basement membrane rabbit serum diluted 6- or 8-fold was administered via tail veins into the animals. On the 8th day, the rats were forced to be orally administered 8 ml sterilized water and then placed in a metabolism cage, and their urine was collected for 24 hours during which the animals were allowed neither food nor water. As the indicator of the model with accelerated Masugi nephritis, the amount of proteins excreted in urine for 24 hours was used.
The medium was administered into the control group.

IC50 (human RARγ)	IC50 (human RARα)	IC50 (human RARβ)	Compound	other results
> 500 nM	1 nM	–	O=C(O)c1ccc(-c2ccc(-c3cc4c(Cl)ccc(Cl)c4o3)[nH]2)cc1	–
> 500 nM	3.8 nM	> 500 nM	O=C(O)c1ccc(-c2ccc(-c3cc4c(F)ccc(Cl)c4o3)[nH]2)cc1	–
–	–	–	CC1(C)CCCc2ncc(-c3ccc(-c4ccc(C(=O)O)cc4)[nH]3)nc21 [Compound E, 4-{2-{5-[2-(8,8-dimethyl-5,6,7,8-tetrahydroquinoxalynyl)]pyrrolyl}}benzoic acid]	effect on anti-DNP IgG2a [1]: significantly inhibited; Degree of Inhibition of Albuminuria (%) ([2]; dose 1.0 mg/kg, 1 mg/kg): 85.8%
–	–	–	CC1CCCN(C)c2ccc(-c3ccc(-c4ccc(C(=O)O)cc4)[nH]3)cc21 (centres unmarked) [Compound F, 4-{2-{5-[7-(1,5-dimethyl-2,3,4,5-tetrahydro-1H-benzazepinyl)]pyrrolyl}}benzoic acid]	effect on anti-DNP IgG2a [1]: significantly inhibited; Degree of Inhibition of Albuminuria (%) ([2]; dose 1.0 mg/kg, 1 mg/kg): 71.1%
–	–	–	COCc1cc2c(cc1-c1ccc(-c3ccc(C(=O)O)cc3)[nH]1)C(C)(C)CCC2(C)C [Compound H, 4-{2-[5-(3-methoxymethyl-5,6,7,8-tetrahydro-5,5,8,8-tetramethylnaphthalene-2-yl)pyrrolyl}}benzoic acid]	effect on anti-DNP IgG2a [1]: showed a tendency to inhibit; Degree of Inhibition of Albuminuria (%) ([2]; dose 0.3 mg/kg, 0.3 mg/kg): 61.3%
–	–	–	C[Si](C)(C)c1cc(C(=O)Nc2ccc(C(=O)O)cc2)cc([Si](C)(C)C)c1 [Compound I, 4-{[(3,5-bistrimethylsilylphenyl)carbonyl]amino}benzoic acid]	Degree of Inhibition of Albuminuria (%) ([2]; dose 1.0 mg/kg, 1 mg/kg): 89.4%
–	–	–	CCn1nc(-c2ccc(-c3ccc(C(=O)O)cc3)[nH]2)cc1C(C)C [G]	effect on anti-DNP IgG2a [1]: significantly inhibited
195 nM	0.6 nM	107 nM	O=C(O)c1ccc(-c2ccc(-c3cc4c(C(F)(F)F)ccc(F)c4o3)[nH]2)cc1 [drawing 11]	–
270 nM	< 0.5 nM	160 nM	CCc1ccc(C)c2cc(-c3ccc(-c4ccc(C(=O)O)cc4)[nH]3)oc12 [drawing 13]	–
140 nM	0.6 nM	56 nM	CC1(C)CCC(C)(C)c2nc(-c3ccc(-c4ccc(C(=O)O)cc4)[nH]3)cnc21 [drawing 14]	–
130 nM	1 nM	58 nM	CC1CCCN(C)c2ncc(-c3ccc(-c4ccc(C(=O)O)cc4)[nH]3)nc21 (centres unmarked) [drawing 16]	–
–	–	–	CCOC(=O)/C=C(C)/C=C/C=C(C)/C=C/c1c(C)cc(OC)c(C)c1C [etretinate, reference compound]	effect on production of anti-DNP antibody ([1]; 50 mg/kg, administered in the same manner as the test compounds): showed a tendency to inhibit

Compound	IC50 (human RARγ)	IC50 (human RARα)	IC50 (human RARβ)	other results
Cc1ccc(C)c2oc(-c3ccc(-c4ccc(C(=O)O)cc4)[nH]3)cc12 [drawing 8]	> 500 nM	1.4 nM	340 nM	–
Cc1ccc(C)c2c(F)c(-c3ccc(-c4ccc(C(=O)O)cc4)[nH]3)oc12 [drawing 12]	225 nM	< 0.5 nM	49 nM	–
COCc1cc2c(cc1-c1ccc(-c3ccc(C(=O)O)cc3)[nH]1)C(C)(C)CCC2(C)C [drawing 18]	83 nM	10 nM	230 nM	–
C[Si](C)(C)c1cc(C(=O)Nc2ccc(C(=O)O)cc2)cc([Si](C)(C)C)c1 [drawing 19]	> 500 nM	6.4 nM	> 500 nM	–
